Assay results: US9149547B2, “Process for production of heterodimers of glutamic acid” (Molecular Insight Pharmaceuticals, Inc., priority 2009, dated 2015)

Legend:
[1] = Stability at room temperature, free I-123 content quantitated by HPLC; format: physicochemical
Method: Stability Results: Stability was evaluated for up to 2 days at room temperature by quantitation of free 1-123 content present by HPLC. The stability was determined at room temperature in an attempt to accelerate any product degradation to more rapidly assess the effectiveness of each radioprotectants in the formulation matrix.

[2] = Stability profile of final formulation at room temperature (FIG. 4); format: physicochemical; details: 6% sodium ascorbate/ascorbic acid with 2.3% sodium gentisate in sterile water for injection, compared to formulation of PBS (pH=9.0)
Method: In a 5 mL vial containing [^123I]NaI was added sterile water for injection (SWFI) (50 μL), 50% sulfuric acid in SWFI (50 μL), oxidant (100 μL) (which was prepared fresh via the incubation of acetic acid (0.2 mL) and 30% hydrogen peroxide (0.335 mL) followed by dilution to a final volume of 5 mL with SWFI), acetonitrile (0.5 mL), and the trimethylstannane precursor, Sn-MIP-1095 (compound 9) (100 μL of a 1 mg/mL solution in acetonitrile). The mixture was vortexed for 1 min and allowed to incubate at room temperature for an additional 10 minutes. The reaction was quenched with 200 μL of 0.1 M sodium thiosulfate. The product was then diluted in 18 mL of SWFI and loaded onto a C18 Sep Pak Plus column. The column was washed with 60 mL SWFI to remove unreacted radioiodine and inorganic and organic salts. The Sn-MIP-1095 precursor and ^123I-MIP-1095 ester are retained on the column. ^123I-MIP-1095 ester was eluted from the column using 4 mL of ethanol, while the Sn-MIP-1095 precursor was retained on the column. The resulting solution, containing the ^123I-MIP-1095 ester, was evaporated to dryness under a stream of nitrogen and the residue was dissolved in methylene chloride (0.5 mL) and TFA (2 mL) was added to remove the ester protecting groups. The deprotection solution was incubated at room temperature for 45 minutes. […]

Compound	stability of formulation ([1]; 6% ascorbate/3% gentisate formulation, 250 mCi scale-up runs)	increase in free iodine ([1]; stored at room temperature, evaluated for up to 2 days, free I-123 by HPLC)	stability profile of final formulation [2]
O=C(O)CC[C@H](NC(=O)N[C@@H](CCCCNCc1ccc(I)cc1)C(=O)O)C(=O)O [^123I-MIP-1072, ^123I—(S)-2-(3-((S)-1-carboxy-5-(4-iodobenzylamino)pentyl)ureido)pentanedioic Acid]	good stability	3-5 % per day	
O=C(O)CC[C@H](NC(=O)N[C@@H](CCCCNC(=O)Nc1ccc(I)cc1)C(=O)O)C(=O)O [^123I-MIP-1095, ^123I—(S)-2-(3-((S)-1-Carboxy-5-(3-(4-iodophenyl)ureido)pentyl)ureido)pentanedioic Acid]			stable profile
